# Read-outs that look alike come from different tables or passages of the source.
# What was measured:
# [1] = target: human Gal-1 (hGal-1) (Homo sapiens (Human), UniProt P09382); experiment: competitive binding assay: biotinylated hGal-1 binding to microplate-adsorbed asialofetuin (ASF); details: Table 15; read-out: IC50 (Galectin-1 inhibition)
# Procedure, shortened: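 Biotinylated human Gal-1 (300-1000 ng/mL) competes with serially diluted compound for binding to ASF-coated plates, 3 h at 4° C. Bound protein detected with streptavidin-peroxidase and ABTS substrate (spectrophotometric). IC50 given as mean of several measurements.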
# [2] = target: human Gal-3 (hGal-3) (Homo sapiens (Human), UniProt P17931); experiment: competitive binding assay: biotinylated hGal-3 binding to microplate-adsorbed asialofetuin (ASF)
# Sequence of human Gal-3 (hGal-3) (P17931 whole entry): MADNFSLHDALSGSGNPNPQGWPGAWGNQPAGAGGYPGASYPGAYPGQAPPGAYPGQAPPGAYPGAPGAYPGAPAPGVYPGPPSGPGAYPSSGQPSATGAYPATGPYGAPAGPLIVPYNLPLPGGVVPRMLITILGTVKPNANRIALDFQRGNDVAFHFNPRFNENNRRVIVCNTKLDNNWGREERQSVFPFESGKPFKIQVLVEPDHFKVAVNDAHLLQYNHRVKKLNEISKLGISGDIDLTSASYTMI
# Procedure, shortened: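 Peroxidase activity developed with ABTS measures the biotinylated hGal-3 remaining on the asialofetuin-coated surface after competition with test compounds. Incubation ran 3 h at 4 °C, followed by 1 h with streptavidin-peroxidase at 80 ng/mL.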
# [3] = Table 5, read-out: IC50 (Gal-3 inhibition)
# [4] = Gal-3 inhibition, binding of biotinylated hGal-3 to ASF, mean values, read-out: IC50
# Sequence of human Gal-1 (hGal-1) (P09382 whole entry): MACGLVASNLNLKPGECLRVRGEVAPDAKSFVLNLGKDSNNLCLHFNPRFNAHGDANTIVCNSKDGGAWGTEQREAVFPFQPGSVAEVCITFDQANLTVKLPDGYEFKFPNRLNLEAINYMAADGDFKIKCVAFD
Molecule,IC50 [1] [µM],"IC50 ([2]; Table 10, 2-OMe-Gal inhibitors, read-out: IC50 (Gal-3 inhibition)) [µM]","IC50 [2, 3] [µM]","IC50 [2, 4] [µM]"
"CCn1ncc(Cl)c1[C@H](S[C@@H]1O[C@H](CO)[C@H](O)[C@H](n2cc(-c3cc(F)c(F)c(F)c3)nn2)[C@H]1OC)C1(O)CCC(F)(F)CC1 [Example 2.44.139S.I., (2R,3R,4S,5R,6S)-6-(((S)-(4-Chloro-1-ethyl-1H-pyrazol-5-yl)(4,4-difluoro-1-hydroxycyclohexyl)methyl)thio)-2-(hydroxymethyl)-5-methoxy-4-(4-(3,4,5-trifluorophenyl)-1H-1,2,3-triazol-1-yl)tetrahydro-2H-pyran-3-ol]",> 100,37.9,,
"(2S,3R,4S,5R,6R)-2-(((S)-((R)-4-Hydroxy-2,2-dimethyltetrahydro-2H-pyran-4-yl)(o-tolyl)methyl)thio)-6-(hydroxymethyl)-4-(4-(3,4,5-trifluorophenyl)-1H-1,2,3-triazol-1-yl)tetrahydro-2H-pyran-3,5-diol [Example 2.43.112SR.]",10.9,,4.9,
"CN1CCC(O)([C@@H](S[C@@H]2O[C@H](CO)[C@H](O)[C@H](n3cc(-c4cc(F)c(F)c(F)c4)nn3)[C@H]2O)c2ccccc2C(F)(F)F)CC1 [Example 2.40.112S., (2S,3R,4S,5R,6R)-2-(((S)-(4-Hydroxy-1-methylpiperidin-4-yl)(2-(trifluoromethyl)phenyl)methyl)thio)-6-(hydroxymethyl)-4-(4-(3,4,5-trifluorophenyl)-1H-1,2,3-triazol-1-yl)tetrahydro-2H-pyran-3,5-diol]",21.7,,3.95,
"Cc1conc1C(S[C@@H]1O[C@H](CO)[C@H](O)[C@H](n2cc(-c3cc(F)c(F)c(F)c3)nn2)[C@H]1O)C(C)(C)O (stereo partly drawn) [Example 2.31.120., (2S,3R,4S,5R,6R)-2-((2-Hydroxy-2-methyl-1-(4-methylisoxazol-3-yl)propyl)thio)-6-(hydroxymethyl)-4-(4-(3,4,5-trifluorophenyl)-1H-1,2,3-triazol-1-yl)tetrahydro-2H-pyran-3,5-diol]",3,,,0.73
"OC[C@H]1O[C@@H](S[C@H](c2ncccc2C(F)(F)F)C2(O)CCC(F)(F)CC2)[C@H](O)[C@@H](n2cc(-c3cc(F)c(F)c(F)c3)nn2)[C@H]1O [Example 2.44.125R., (2S,3R,4S,5R,6R)-2-(((R)-(4,4-Difluoro-1-hydroxycyclohexyl)(3-(trifluoromethyl)pyridin-2-yl)methyl)thio)-6-(hydroxymethyl)-4-(4-(3,4,5-trifluorophenyl)-1H-1,2,3-triazol-1-yl)tetrahydro-2H-pyran-3,5-diol]",0.2,,0.05,
"(2S,3R,4S,5R,6R)-2-(((R)-((R)-4-Hydroxy-2,2-dimethyltetrahydro-2H-pyran-4-yl)(o-tolyl)methyl)thio)-6-(hydroxymethyl)-4-(4-(3,4,5-trifluorophenyl)-1H-1,2,3-triazol-1-yl)tetrahydro-2H-pyran-3,5-diol [Example 2.43.112RR.]",6.8,,1.5,
"OCC(S[C@@H]1O[C@H](CO)[C@H](O)[C@H](n2cc(-c3cccc(F)c3)nn2)[C@H]1O)c1ccccc1Br (stereo partly drawn) [Example 1.30.101., (2S,3R,4S,5R,6R)-2-((1-(2-Bromophenyl)-2-hydroxyethyl)thio)-4-(4-(3-fluorophenyl)-1H-1,2,3-triazol-1-yl)-6-(hydroxymethyl)tetrahydro-2H-pyran-3,5-diol]",5.77,,,1.7
"CO[C@@H]1[C@@H](n2cc(-c3cc(F)c(F)c(F)c3)nn2)[C@@H](O)[C@@H](CO)O[C@H]1SC(c1ccccc1C(F)(F)F)C1(O)CCN(C(C)=O)CC1 (stereo partly drawn) [Example 2.48.112.I., 1-(4-Hydroxy-4-((((2S,3R,4S,5R,6R)-5-hydroxy-6-(hydroxymethyl)-3-methoxy-4-(4-(3,4,5-trifluorophenyl)-1H-1,2,3-triazol-1-yl)tetrahydro-2H-pyran-2-yl)thio)(2-(trifluoromethyl)phenyl)methyl)piperidin-1-yl)ethan-1-one]",0.4,,,0.19
